Results taken from patent US20250163104A1, “MACROCYCLIC IMMUNOMODULATORS” (priority 2021, published 2025).
Where a SMILES comes first, the peptide text is derived from it. Bridges are numbered along the chain shown (N, C = ends). [ ]: non-standard residue; d: D form. The star is where a group is joined. Phe(3,4,5-F3) = N[C@@H](Cc1cc(F)c(F)c(F)c1)C(=O)O; Phe(3,4-Cl2) = N[C@@H](Cc1ccc(Cl)c(Cl)c1)C(=O)O; Phe(2,4-Cl2) = N[C@@H](Cc1ccc(Cl)cc1Cl)C(=O)O; Phe(3,4-F2) = N[C@@H](Cc1ccc(F)c(F)c1)C(=O)O; Phe(3,5-F2) = N[C@@H](Cc1cc(F)cc(F)c1)C(=O)O; Phe(2,4-F2) = N[C@@H](Cc1ccc(F)cc1F)C(=O)O; Bip = N[C@@H](Cc1ccc(-c2ccccc2)cc1)C(=O)O; Phe(4-Cl) = N[C@@H](Cc1ccc(Cl)cc1)C(=O)O; Phe(4-NH2) = Nc1ccc(C[C@H](N)C(=O)O)cc1; Phe(2-Cl) = N[C@@H](Cc1ccccc1Cl)C(=O)O; Phe(3-Me) = Cc1cccc(C[C@H](N)C(=O)O)c1; Phe(4-Me) = Cc1ccc(C[C@H](N)C(=O)O)cc1; mTyr = N[C@@H](Cc1cccc(O)c1)C(=O)O; Carboxymethyl = O=C(O)C*; Orn = NCCC[C@H](N)C(=O)O; Dab = NCC[C@H](N)C(=O)O; Dap = NC[C@H](N)C(=O)O

biological target: T1, human PD-1 / PD-L1-Ig binding on Jurkat cell line over-expressing human PD-1 (Jurkat-PD-1) (Homo sapiens, UniProt Q15116); experiment: Jurkat-PD-1 Cell Binding High-Content Screening Assay (CBA); assay type: cell-based; conditions: Jurkat-PD-1 cells, PE-labeled PD-L1-Ig 20 nM final; read-out: Jurkat HPD1_PDL1 IC50
T1 construct: expressed in transfected cells; host or cells: Jurkat
T1 sequence (Q15116 25-288): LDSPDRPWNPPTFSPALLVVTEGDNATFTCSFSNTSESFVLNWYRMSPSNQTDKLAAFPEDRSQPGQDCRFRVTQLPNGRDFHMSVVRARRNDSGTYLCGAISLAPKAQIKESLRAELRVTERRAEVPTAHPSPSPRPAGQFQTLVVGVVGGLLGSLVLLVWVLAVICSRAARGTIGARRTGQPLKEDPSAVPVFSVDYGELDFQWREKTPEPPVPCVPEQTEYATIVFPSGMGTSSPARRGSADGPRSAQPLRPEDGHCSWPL
Procedure, shortened: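 Read-out: high-content imaging of PE-tagged PD-L1-Ig bound to Jurkat cells overexpressing human PD-1, after fixation with 4% paraformaldehyde and Hoechst 33342 nuclear staining. Ligand was used at 20 nM final for 1 hour, after a 2 h compound exposure at 37° C in serum-containing DMEM.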

| SMILES | IC50 [nM] |
| --- | --- |
| Cc1ccc(C[C@@H]2NC(=O)[C@H](CCN)NC(=O)[C@@H](CC(C)C)NC(=O)[C@H](CCCN)NC(=O)[C@H](CCC(=O)O)NC(=O)[C@H](Cc3ccc(-c4ccccc4)cc3)NC(=O)[C@H](C(C)C)NC(=O)[C@H](Cc3c[nH]c4ccccc34)NC(=O)[C@H](CC(=O)O)NC(=O)[C@H](Cc3ccc(OCC(=O)O)cc3)NC(=O)[C@H](CN)NC(=O)CSC[C@@H](C(=O)N[C@@H](C)C(N)=O)NC(=O)[C@H]([C@@H](C)O)NC(=O)[C@H](C(C)C)NC2=O)cc1 [Compound 1471] ({CH2CO}-[Dap]Y(Carboxymethyl)DWV[Bip]E[Orn][dL][Dab][Phe(4-Me)]VTCA-NH2; thioether N-14) | 305 |
| CC(C)C[C@H]1NC(=O)[C@H](CCCN)NC(=O)[C@H](CCC(=O)O)NC(=O)[C@H](Cc2ccc(-c3ccccc3)cc2)NC(=O)[C@H](C(C)C)NC(=O)[C@H](Cc2c[nH]c3ccccc23)NC(=O)[C@H](CC(=O)O)NC(=O)[C@H](Cc2ccc(OCC(=O)O)cc2)NC(=O)[C@H](CN)NC(=O)CSC[C@@H](C(=O)N[C@@H](C)C(N)=O)NC(=O)[C@H]([C@@H](C)O)NC(=O)[C@H](C(C)C)NC(=O)[C@H](Cc2ccc(Cl)cc2)NC(=O)[C@H](CCN)NC1=O [Compound 1472] ({CH2CO}-[Dap]Y(Carboxymethyl)DWV[Bip]E[Orn][dL][Dab][Phe(4-Cl)]VTCA-NH2; thioether N-14) | 128 |
| CC(C)C[C@H]1NC(=O)[C@H](CCCN)NC(=O)[C@H](CCC(=O)O)NC(=O)[C@H](Cc2ccc(-c3ccccc3)cc2)NC(=O)[C@H](C(C)C)NC(=O)[C@H](Cc2c[nH]c3ccccc23)NC(=O)[C@H](CC(=O)O)NC(=O)[C@H](Cc2ccc(OCC(=O)O)cc2)NC(=O)[C@H](CN)NC(=O)CSC[C@@H](C(=O)N[C@@H](C)C(N)=O)NC(=O)[C@H]([C@@H](C)O)NC(=O)[C@H](C(C)C)NC(=O)[C@H](Cc2ccc(N)cc2)NC(=O)[C@H](CCN)NC1=O [Compound 1473] ({CH2CO}-[Dap]Y(Carboxymethyl)DWV[Bip]E[Orn][dL][Dab][Phe(4-NH2)]VTCA-NH2; thioether N-14) | 801 |
| CC(C)C[C@H]1NC(=O)[C@H](CCCN)NC(=O)[C@H](CCC(=O)O)NC(=O)[C@H](Cc2ccc(-c3ccccc3)cc2)NC(=O)[C@H](C(C)C)NC(=O)[C@H](Cc2c[nH]c3ccccc23)NC(=O)[C@H](CC(=O)O)NC(=O)[C@H](Cc2ccc(OCC(=O)O)cc2)NC(=O)[C@H](CN)NC(=O)CSC[C@@H](C(=O)N[C@@H](C)C(N)=O)NC(=O)[C@H]([C@@H](C)O)NC(=O)[C@H](C(C)C)NC(=O)[C@H](Cc2cc(F)c(F)cc2F)NC(=O)[C@H](CCN)NC1=O [Compound 1477] | 144 |
| CC(C)C[C@H]1NC(=O)[C@H](CCCN)NC(=O)[C@H](CCC(=O)O)NC(=O)[C@H](Cc2ccc(-c3ccccc3)cc2)NC(=O)[C@H](C(C)C)NC(=O)[C@H](Cc2c[nH]c3ccccc23)NC(=O)[C@H](CC(=O)O)NC(=O)[C@H](Cc2ccc(OCC(=O)O)cc2)NC(=O)[C@H](CN)NC(=O)CSC[C@@H](C(=O)N[C@@H](C)C(N)=O)NC(=O)[C@H]([C@@H](C)O)NC(=O)[C@H](C(C)C)NC(=O)[C@H](Cc2ccc(F)cc2F)NC(=O)[C@H](CCN)NC1=O [Compound 1479] ({CH2CO}-[Dap]Y(Carboxymethyl)DWV[Bip]E[Orn][dL][Dab][Phe(2,4-F2)]VTCA-NH2; thioether N-14) | 347 |
| CC(C)C[C@H]1NC(=O)[C@H](CCCN)NC(=O)[C@H](CCC(=O)O)NC(=O)[C@H](Cc2ccc(-c3ccccc3)cc2)NC(=O)[C@H](C(C)C)NC(=O)[C@H](Cc2c[nH]c3ccccc23)NC(=O)[C@H](CC(=O)O)NC(=O)[C@H](Cc2ccc(OCC(=O)O)cc2)NC(=O)[C@H](CN)NC(=O)CSC[C@@H](C(=O)N[C@@H](C)C(N)=O)NC(=O)[C@H]([C@@H](C)O)NC(=O)[C@H](C(C)C)NC(=O)[C@H](Cc2cc(F)c(F)c(F)c2)NC(=O)[C@H](CCN)NC1=O [Compound 1480] ({CH2CO}-[Dap]Y(Carboxymethyl)DWV[Bip]E[Orn][dL][Dab][Phe(3,4,5-F3)]VTCA-NH2; thioether N-14) | 150 |

Molecules with a lower IC50, results first:

| IC50 [nM] | SMILES |
| --- | --- |
| 54.6 | Cc1cccc(C[C@@H]2NC(=O)[C@H](CCN)NC(=O)[C@@H](CC(C)C)NC(=O)[C@H](CCCN)NC(=O)[C@H](CCC(=O)O)NC(=O)[C@H](Cc3ccc(-c4ccccc4)cc3)NC(=O)[C@H](C(C)C)NC(=O)[C@H](Cc3c[nH]c4ccccc34)NC(=O)[C@H](CC(=O)O)NC(=O)[C@H](Cc3ccc(OCC(=O)O)cc3)NC(=O)[C@H](CN)NC(=O)CSC[C@@H](C(=O)N[C@@H](C)C(N)=O)NC(=O)[C@H]([C@@H](C)O)NC(=O)[C@H](C(C)C)NC2=O)c1 [Compound 1470] ({CH2CO}-[Dap]Y(Carboxymethyl)DWV[Bip]E[Orn][dL][Dab][Phe(3-Me)]VTCA-NH2; thioether N-14) |
| 68.6 | CC(C)C[C@H]1NC(=O)[C@H](CCCN)NC(=O)[C@H](CCC(=O)O)NC(=O)[C@H](Cc2ccc(-c3ccccc3)cc2)NC(=O)[C@H](C(C)C)NC(=O)[C@H](Cc2c[nH]c3ccccc23)NC(=O)[C@H](CC(=O)O)NC(=O)[C@H](Cc2ccc(OCC(=O)O)cc2)NC(=O)[C@H](CN)NC(=O)CSC[C@@H](C(=O)N[C@@H](C)C(N)=O)NC(=O)[C@H]([C@@H](C)O)NC(=O)[C@H](C(C)C)NC(=O)[C@H](Cc2cccc3ccccc23)NC(=O)[C@H](CCN)NC1=O [Compound 1474] |
| 120 | CC(C)C[C@H]1NC(=O)[C@H](CCCN)NC(=O)[C@H](CCC(=O)O)NC(=O)[C@H](Cc2ccc(-c3ccccc3)cc2)NC(=O)[C@H](C(C)C)NC(=O)[C@H](Cc2c[nH]c3ccccc23)NC(=O)[C@H](CC(=O)O)NC(=O)[C@H](Cc2ccc(OCC(=O)O)cc2)NC(=O)[C@H](CN)NC(=O)CSC[C@@H](C(=O)N[C@@H](C)C(N)=O)NC(=O)[C@H]([C@@H](C)O)NC(=O)[C@H](C(C)C)NC(=O)[C@H](Cc2cccc(O)c2)NC(=O)[C@H](CCN)NC1=O [Compound 1475] ({CH2CO}-[Dap]Y(Carboxymethyl)DWV[Bip]E[Orn][dL][Dab][mTyr]VTCA-NH2; thioether N-14) |
| 33 | CC(C)C[C@H]1NC(=O)[C@H](CCCN)NC(=O)[C@H](CCC(=O)O)NC(=O)[C@H](Cc2ccc(-c3ccccc3)cc2)NC(=O)[C@H](C(C)C)NC(=O)[C@H](Cc2c[nH]c3ccccc23)NC(=O)[C@H](CC(=O)O)NC(=O)[C@H](Cc2ccc(OCC(=O)O)cc2)NC(=O)[C@H](CN)NC(=O)CSC[C@@H](C(=O)N[C@@H](C)C(N)=O)NC(=O)[C@H]([C@@H](C)O)NC(=O)[C@H](C(C)C)NC(=O)[C@H](Cc2cc(F)cc(F)c2)NC(=O)[C@H](CCN)NC1=O [Compound 1476] ({CH2CO}-[Dap]Y(Carboxymethyl)DWV[Bip]E[Orn][dL][Dab][Phe(3,5-F2)]VTCA-NH2; thioether N-14) |
| 120 | CC(C)C[C@H]1NC(=O)[C@H](CCCN)NC(=O)[C@H](CCC(=O)O)NC(=O)[C@H](Cc2ccc(-c3ccccc3)cc2)NC(=O)[C@H](C(C)C)NC(=O)[C@H](Cc2c[nH]c3ccccc23)NC(=O)[C@H](CC(=O)O)NC(=O)[C@H](Cc2ccc(OCC(=O)O)cc2)NC(=O)[C@H](CN)NC(=O)CSC[C@@H](C(=O)N[C@@H](C)C(N)=O)NC(=O)[C@H]([C@@H](C)O)NC(=O)[C@H](C(C)C)NC(=O)[C@H](Cc2ccc(Cl)cc2Cl)NC(=O)[C@H](CCN)NC1=O [Compound 1478] ({CH2CO}-[Dap]Y(Carboxymethyl)DWV[Bip]E[Orn][dL][Dab][Phe(2,4-Cl2)]VTCA-NH2; thioether N-14) |
| 67.2 | CC(C)C[C@H]1NC(=O)[C@H](CCCN)NC(=O)[C@H](CCC(=O)O)NC(=O)[C@H](Cc2ccc(-c3ccccc3)cc2)NC(=O)[C@H](C(C)C)NC(=O)[C@H](Cc2c[nH]c3ccccc23)NC(=O)[C@H](CC(=O)O)NC(=O)[C@H](Cc2ccc(OCC(=O)O)cc2)NC(=O)[C@H](CN)NC(=O)CSC[C@@H](C(=O)N[C@@H](C)C(N)=O)NC(=O)[C@H]([C@@H](C)O)NC(=O)[C@H](C(C)C)NC(=O)[C@H](Cc2ccc(Cl)c(Cl)c2)NC(=O)[C@H](CCN)NC1=O [Compound 1481] ({CH2CO}-[Dap]Y(Carboxymethyl)DWV[Bip]E[Orn][dL][Dab][Phe(3,4-Cl2)]VTCA-NH2; thioether N-14) |
| 104 | CC(C)C[C@H]1NC(=O)[C@H](CCCN)NC(=O)[C@H](CCC(=O)O)NC(=O)[C@H](Cc2ccc(-c3ccccc3)cc2)NC(=O)[C@H](C(C)C)NC(=O)[C@H](Cc2c[nH]c3ccccc23)NC(=O)[C@H](CC(=O)O)NC(=O)[C@H](Cc2ccc(OCC(=O)O)cc2)NC(=O)[C@H](CN)NC(=O)CSC[C@@H](C(=O)N[C@@H](C)C(N)=O)NC(=O)[C@H]([C@@H](C)O)NC(=O)[C@H](C(C)C)NC(=O)[C@H](Cc2ccc(F)c(F)c2)NC(=O)[C@H](CCN)NC1=O [Compound 1482] ({CH2CO}-[Dap]Y(Carboxymethyl)DWV[Bip]E[Orn][dL][Dab][Phe(3,4-F2)]VTCA-NH2; thioether N-14) |
| 34.8 | CC(C)C[C@H]1NC(=O)[C@H](CCCN)NC(=O)[C@H](CCC(=O)O)NC(=O)[C@H](Cc2ccc(-c3ccccc3)cc2)NC(=O)[C@H](C(C)C)NC(=O)[C@H](Cc2c[nH]c3ccccc23)NC(=O)[C@H](CC(=O)O)NC(=O)[C@H](Cc2ccc(OCC(=O)O)cc2)NC(=O)[C@H](CN)NC(=O)CSC[C@@H](C(=O)N[C@@H](C)C(N)=O)NC(=O)[C@H]([C@@H](C)O)NC(=O)[C@H](C(C)C)NC(=O)[C@H](Cc2ccccc2Cl)NC(=O)[C@H](CCN)NC1=O [Compound 1483] ({CH2CO}-[Dap]Y(Carboxymethyl)DWV[Bip]E[Orn][dL][Dab][Phe(2-Cl)]VTCA-NH2; thioether N-14) |
